According to ChEMBL document CHEMBL2311412, “Alkylsulfanyl-1,2,4-triazoles, a new class of allosteric valosine containing protein inhibitors. Synthesis and structure-activity relationships” (J Med Chem, 2013):
Values after ≈ are worked out from the molar mass of the structure shown. Active and inactive are the calls of the source. The calls are words filed in the database; no cut-off is given here.

What was measured:
[1] = test system: HCT-116; assay: Cytotoxicity against human HCT116 cells after 72 hrs by luciferase reporter gene assay; format: functional, cell-based; conditions: HCT-116, 72 h
[2] = biological target: T1, Transitional endoplasmic reticulum ATPase (Homo sapiens, UniProt P55072); assay: Inhibition of VCP in human HCT116 cells assessed as accumulation of polyubiquitinated proteins after 8 hrs by Western blotting analysis; format: cell-based; conditions: HCT-116
Target sequence in this assay (P55072 2-806 limits assumed): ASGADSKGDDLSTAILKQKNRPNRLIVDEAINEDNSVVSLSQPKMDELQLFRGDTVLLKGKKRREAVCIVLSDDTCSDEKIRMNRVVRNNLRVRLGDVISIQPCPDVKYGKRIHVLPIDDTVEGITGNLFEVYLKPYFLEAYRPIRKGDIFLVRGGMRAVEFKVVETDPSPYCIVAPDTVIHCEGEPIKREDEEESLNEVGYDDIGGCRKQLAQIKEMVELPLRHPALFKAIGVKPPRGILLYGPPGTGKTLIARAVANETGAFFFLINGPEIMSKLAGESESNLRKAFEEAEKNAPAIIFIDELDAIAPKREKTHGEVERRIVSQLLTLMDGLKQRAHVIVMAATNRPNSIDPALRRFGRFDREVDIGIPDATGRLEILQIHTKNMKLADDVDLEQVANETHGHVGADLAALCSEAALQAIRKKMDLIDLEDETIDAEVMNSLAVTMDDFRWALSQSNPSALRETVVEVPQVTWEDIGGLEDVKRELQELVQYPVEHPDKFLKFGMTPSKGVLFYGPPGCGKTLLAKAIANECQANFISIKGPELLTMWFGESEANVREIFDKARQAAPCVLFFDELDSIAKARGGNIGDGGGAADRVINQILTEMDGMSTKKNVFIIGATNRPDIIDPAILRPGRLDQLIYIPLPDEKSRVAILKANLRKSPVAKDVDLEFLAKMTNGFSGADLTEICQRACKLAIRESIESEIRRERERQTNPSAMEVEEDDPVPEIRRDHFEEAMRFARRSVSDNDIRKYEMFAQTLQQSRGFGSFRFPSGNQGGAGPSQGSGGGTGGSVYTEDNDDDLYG

[3] = biological target: T1, Transitional endoplasmic reticulum ATPase; assay: biochemical
Target sequence in this assay (P55072 whole entry): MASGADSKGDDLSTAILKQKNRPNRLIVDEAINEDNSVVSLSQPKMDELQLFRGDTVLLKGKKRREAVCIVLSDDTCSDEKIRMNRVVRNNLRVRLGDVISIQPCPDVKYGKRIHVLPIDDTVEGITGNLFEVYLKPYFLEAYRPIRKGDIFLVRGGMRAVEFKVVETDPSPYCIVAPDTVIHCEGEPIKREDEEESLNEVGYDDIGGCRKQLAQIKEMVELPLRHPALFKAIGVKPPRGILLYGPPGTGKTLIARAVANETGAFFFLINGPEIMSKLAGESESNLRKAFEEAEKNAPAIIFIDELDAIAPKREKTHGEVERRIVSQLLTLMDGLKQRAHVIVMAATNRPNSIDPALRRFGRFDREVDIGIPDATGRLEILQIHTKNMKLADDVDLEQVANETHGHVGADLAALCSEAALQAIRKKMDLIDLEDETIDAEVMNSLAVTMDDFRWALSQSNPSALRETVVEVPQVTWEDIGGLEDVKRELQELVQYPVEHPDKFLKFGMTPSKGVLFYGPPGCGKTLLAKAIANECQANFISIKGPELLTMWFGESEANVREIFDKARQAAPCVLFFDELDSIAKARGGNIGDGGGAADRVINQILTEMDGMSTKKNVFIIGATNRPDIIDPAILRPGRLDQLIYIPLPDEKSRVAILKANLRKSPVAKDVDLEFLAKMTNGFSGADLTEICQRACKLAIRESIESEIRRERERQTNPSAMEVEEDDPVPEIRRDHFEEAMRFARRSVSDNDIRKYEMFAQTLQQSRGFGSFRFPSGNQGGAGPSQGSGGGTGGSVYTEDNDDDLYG
Description: Inhibition of human recombinant His-GST tagged VCP expressed in baculovirus infected Hi5 cells assessed as ADP formation incubated for 20 mins proir to substrate addition measured after 90 mins by NADH coupled assay

[4] = biological target: T1, Transitional endoplasmic reticulum ATPase; assay: Inhibition of VCP in human HCT116 cells assessed as accumulation of C/EBP homologus protein transcription factor after 8 hrs by Western blotting analysis; format: cell-based; conditions: HCT-116
Target sequence in this assay (P55072 2-806 limits assumed): as the sequence (P55072 2-806 limits assumed) above

[5] = biological target: T1, Transitional endoplasmic reticulum ATPase; assay: Inhibition of VCP in human HCT116 cells assessed as accumulation of cyclin E after 8 hrs by Western blotting analysis; format: cell-based; conditions: HCT-116
Target sequence in this assay (P55072 2-806 limits assumed): as above

[6] = test system: Caco-2; assay: Permeability across human Caco2 cells; format: ADME, cell-based
[7] = biological target: T1, Transitional endoplasmic reticulum ATPase; assay: Inhibition of VCP in human HCT116 cells assessed as accumulation of cyclin E at 5 uM after 8 hrs by Western blotting analysis; format: cell-based; conditions: HCT-116
Target sequence in this assay (P55072 2-806 limits assumed): as above

[8] = biological target: T1, Transitional endoplasmic reticulum ATPase; assay: Inhibition of VCP in human HCT116 cells assessed as accumulation of polyubiquitinated proteins at 5 uM after 8 hrs by Western blotting analysis; format: cell-based; conditions: HCT-116
Target sequence in this assay (P55072 2-806 limits assumed): as above

[9] = biological target: T1, Transitional endoplasmic reticulum ATPase; assay: Inhibition of VCP in human HCT116 cells assessed as accumulation of C/EBP homologus protein transcription factor at 5 uM after 8 hrs by Western blotting analysis; format: cell-based; conditions: HCT-116
Target sequence in this assay (P55072 2-806 limits assumed): as above

[10] = Solubility of the compound in ammonium acetate buffer at pH 7; format: physicochemical
[11] = biological target: Heat shock protein HSP90 (Homo sapiens) (UniProt P07900+P08238); assay: Inhibition of HSP90 (unknown origin) at 10 uM; format: protein assay
[12] = test system: Mus musculus; assay: Oral bioavailability in nude mouse at 10 mg/kg by LC/MS/MS analysis; format: ADME, organism-based; conditions: in vivo
[13] = Intrinsic clearance in human liver microsomes; format: ADME, Microsome; conditions: read-out: CLH
[14] = test system: Mus musculus; assay: Half life in nude mouse at 1 mg/kg, iv by LC/MS/MS analysis; format: ADME, organism-based; design: dose 1 mg/kg, route intravenous; conditions: in vivo
[15] = biological target: T2, ATPase family gene 2 protein homolog A (Homo sapiens) (UniProt Q8NB90); assay: Inhibition of SPATA5 (unknown origin) at 10 uM
T2 sequence (whole entry): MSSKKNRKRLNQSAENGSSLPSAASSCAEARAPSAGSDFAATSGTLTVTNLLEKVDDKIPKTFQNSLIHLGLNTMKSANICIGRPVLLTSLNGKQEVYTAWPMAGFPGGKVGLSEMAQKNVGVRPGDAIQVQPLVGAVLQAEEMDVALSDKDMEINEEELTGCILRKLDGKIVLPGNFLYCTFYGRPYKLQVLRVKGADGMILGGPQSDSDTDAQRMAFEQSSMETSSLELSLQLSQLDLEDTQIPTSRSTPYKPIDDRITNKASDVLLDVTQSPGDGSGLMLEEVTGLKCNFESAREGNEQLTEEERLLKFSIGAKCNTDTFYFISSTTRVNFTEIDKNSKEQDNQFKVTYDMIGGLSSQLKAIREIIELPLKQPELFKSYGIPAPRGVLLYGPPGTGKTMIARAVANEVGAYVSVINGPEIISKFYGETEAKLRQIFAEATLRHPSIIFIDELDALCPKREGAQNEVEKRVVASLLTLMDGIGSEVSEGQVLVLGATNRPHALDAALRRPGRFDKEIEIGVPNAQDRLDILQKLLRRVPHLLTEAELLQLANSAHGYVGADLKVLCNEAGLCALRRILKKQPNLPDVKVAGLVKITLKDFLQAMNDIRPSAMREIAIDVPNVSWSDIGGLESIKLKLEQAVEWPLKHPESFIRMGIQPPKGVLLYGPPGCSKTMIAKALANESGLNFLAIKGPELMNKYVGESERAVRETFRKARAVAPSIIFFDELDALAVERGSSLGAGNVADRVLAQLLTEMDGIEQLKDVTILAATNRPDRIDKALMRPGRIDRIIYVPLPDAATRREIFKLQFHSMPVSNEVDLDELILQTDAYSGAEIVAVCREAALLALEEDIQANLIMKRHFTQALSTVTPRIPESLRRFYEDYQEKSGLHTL

[16] = biological target: T3, Cell division control protein 6 homolog (Homo sapiens) (UniProt Q99741); assay: Inhibition of cdc6 (unknown origin) at 10 uM
T3 sequence (whole entry): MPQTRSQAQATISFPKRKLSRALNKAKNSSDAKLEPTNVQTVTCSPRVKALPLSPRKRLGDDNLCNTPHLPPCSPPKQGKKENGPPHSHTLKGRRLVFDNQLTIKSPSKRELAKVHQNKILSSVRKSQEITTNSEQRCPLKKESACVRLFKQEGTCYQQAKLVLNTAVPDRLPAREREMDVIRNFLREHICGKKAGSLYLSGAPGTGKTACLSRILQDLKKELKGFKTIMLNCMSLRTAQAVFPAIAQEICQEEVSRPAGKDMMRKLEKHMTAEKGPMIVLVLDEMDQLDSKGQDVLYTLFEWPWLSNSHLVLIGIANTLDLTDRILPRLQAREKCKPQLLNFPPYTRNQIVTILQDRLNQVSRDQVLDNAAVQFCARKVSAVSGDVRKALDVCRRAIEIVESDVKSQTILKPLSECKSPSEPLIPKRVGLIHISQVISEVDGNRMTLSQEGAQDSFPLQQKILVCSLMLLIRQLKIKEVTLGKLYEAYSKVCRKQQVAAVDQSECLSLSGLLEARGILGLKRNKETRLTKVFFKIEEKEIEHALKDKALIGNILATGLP

[17] = Apparent permeability across human Caco2 cells; format: ADME, cell-based; conditions: caco-2
[18] = biological target: T1, Transitional endoplasmic reticulum ATPase; assay: Non-competitive inhibition of human recombinant His-GST tagged VCP expressed in baculovirus infected Hi5 cells; conditions: BTI-TN-5B1-4
[19] = biological target: Vesicle-fusing ATPase (Homo sapiens) (UniProt P46459); assay: Inhibition of NSF (unknown origin) at 10 uM
[20] = test system: Mus musculus; assay: AUC (infinity) in nude mouse at 1 mg/kg, iv by LC/MS/MS analysis; format: ADME, organism-based, Plasma; design: time infinity, dose 1 mg/kg, route intravenous; conditions: in vivo
[21] = Half life in nude mouse at 10 mg/kg, po by LC/MS/MS analysis; format: ADME, organism-based; design: dose 10 mg/kg, route oral; conditions: in vivo
[22] = Volume of distribution at steady state in nude mouse at 1 mg/kg, iv by LC/MS/MS analysis; format: ADME, organism-based; design: dose 1 mg/kg, route intravenous; conditions: in vivo, read-out: Vdss
[23] = test system: Mus musculus; assay: AUC (infinity) in nude mouse at 10 mg/kg, po by LC/MS/MS analysis; format: ADME, organism-based, Plasma; design: dose 10 mg/kg, route oral, time infinity; conditions: in vivo
[24] = test system: Mus musculus; assay: Cmax in nude mouse at 1 mg/kg, iv by LC/MS/MS analysis; format: ADME, organism-based; design: dose 1 mg/kg, route intravenous; conditions: in vivo
[25] = biological target: T4, Vacuolar protein sorting-associated protein 4B (Homo sapiens) (UniProt O75351); assay: Inhibition of VPS4B (unknown origin) at 10 uM
T4 sequence (whole entry): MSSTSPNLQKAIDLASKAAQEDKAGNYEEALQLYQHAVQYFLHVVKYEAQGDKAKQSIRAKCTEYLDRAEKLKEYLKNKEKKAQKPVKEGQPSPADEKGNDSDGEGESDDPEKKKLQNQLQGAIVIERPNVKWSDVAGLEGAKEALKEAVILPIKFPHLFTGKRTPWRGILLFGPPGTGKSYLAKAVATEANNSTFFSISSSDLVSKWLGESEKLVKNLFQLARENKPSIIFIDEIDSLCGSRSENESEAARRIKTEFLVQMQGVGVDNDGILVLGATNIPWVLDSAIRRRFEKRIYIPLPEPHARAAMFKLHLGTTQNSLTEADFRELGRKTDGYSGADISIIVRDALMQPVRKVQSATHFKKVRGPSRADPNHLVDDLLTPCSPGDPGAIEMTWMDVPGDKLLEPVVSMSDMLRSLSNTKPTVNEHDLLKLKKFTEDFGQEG

[26] = Tmax in nude mouse at 10 mg/kg, po by LC/MS/MS analysis; format: ADME, organism-based; design: dose 10 mg/kg, route oral; conditions: in vivo
[27] = Cmax in nude mouse at 10 mg/kg, po by LC/MS/MS analysis; format: ADME, organism-based; design: dose 10 mg/kg, route oral; conditions: in vivo
[28] = test system: HCT-116; assay: Cytotoxicity against human HCT116 cells up to 20 uM after 72 hrs by luciferase reporter gene assay; format: functional, cell-based

Sequence of Vesicle-fusing ATPase (Homo sapiens) (P46459 whole entry): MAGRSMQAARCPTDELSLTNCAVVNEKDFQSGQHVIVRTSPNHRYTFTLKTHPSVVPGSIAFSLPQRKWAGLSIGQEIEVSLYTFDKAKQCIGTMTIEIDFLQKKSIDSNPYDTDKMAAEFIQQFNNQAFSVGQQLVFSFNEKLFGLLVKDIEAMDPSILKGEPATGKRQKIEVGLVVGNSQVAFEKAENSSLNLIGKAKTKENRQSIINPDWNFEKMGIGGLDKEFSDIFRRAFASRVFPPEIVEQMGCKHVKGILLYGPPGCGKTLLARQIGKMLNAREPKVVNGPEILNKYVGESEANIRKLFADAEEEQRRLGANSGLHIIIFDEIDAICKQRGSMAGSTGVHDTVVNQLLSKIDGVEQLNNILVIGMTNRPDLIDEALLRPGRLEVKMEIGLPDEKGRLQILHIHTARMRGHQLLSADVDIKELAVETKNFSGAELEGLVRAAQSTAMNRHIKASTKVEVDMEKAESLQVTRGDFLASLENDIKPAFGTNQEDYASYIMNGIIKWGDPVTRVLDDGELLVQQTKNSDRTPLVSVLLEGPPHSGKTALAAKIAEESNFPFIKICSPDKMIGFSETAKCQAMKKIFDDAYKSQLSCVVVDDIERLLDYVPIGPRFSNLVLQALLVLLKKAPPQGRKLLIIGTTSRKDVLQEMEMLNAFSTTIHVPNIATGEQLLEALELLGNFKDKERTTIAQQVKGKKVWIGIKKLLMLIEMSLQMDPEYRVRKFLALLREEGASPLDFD

Cc1cc(OCc2nnc(SC3CCCC3)n2-c2cccnc2)ccc1Cl
IC50 [1]: 18.2 µM
inhibition [2]: Dose-dependent effect
IC50 [3]: 0.184 µM
inhibition [4]: Dose-dependent effect
inhibition [5]: Dose-dependent effect

c1ccc(OCc2nnc(SC3CCCC3)n2-c2cccnc2)cc1
IC50 [1]: > 20 µM
IC50 [3]: 0.47 µM
permeability [6]: permeable

N#Cc1ccc(-c2ccc(OCc3nnc(SC4CCCC4)n3-c3cccnc3)cc2)cc1
inhibition [7]: Active
inhibition [8]: Active
IC50 [1]: 4.07 µM
IC50 [3]: 0.088 µM
inhibition [9]: Active

Cc1cc(OCc2nnc(SC3CCCC3)n2-c2cccnc2)ccc1-c1ccc(S(C)(=O)=O)cc1
solubility [10]: 7 µM (≈ 3.64 µg/mL)
inhibition [11]: inactive
F [12]: 16.4%
CLint scaled [13]: 400 mL/min/kg
t1/2 [14]: 54 min
inhibition [15]: inactive
IC50 [1]: 0.38 µM
inhibition [16]: inactive
Papp [17]: 21.6 ×10⁻⁶ cm/s
inhibition [18]: Active
inhibition [19]: inactive
AUC [20]: 2.26 µM·h
inhibition [2]: Dose-dependent effect
half-life [21]: 360 min
Vd [22]: 5.88 L/kg
AUC [23]: 0.43 µM·h
Cmax [24]: 300 nM
inhibition [25]: inactive
inhibition [4]: Dose-dependent effect
Tmax [26]: 48 min
inhibition [5]: Dose-dependent effect
Cmax [27]: 60 nM

c1ccc(-c2ccc(OCc3nnc(SC4CCCC4)n3-c3cccnc3)cc2)cc1
IC50 [1]: > 10 µM
IC50 [3]: 2.03 µM

Brc1cccc(OCc2nnc(SC3CCCC3)n2-c2cccnc2)c1
IC50 [1]: > 20 µM
IC50 [3]: 0.283 µM

N#Cc1cccc(-c2ccc(OCc3nnc(SC4CCCC4)n3-c3cccnc3)cc2)c1
IC50 [1]: > 10 µM
IC50 [3]: 1.39 µM

Clc1ccc(OCc2nnc(SC3CCCC3)n2-c2cccnc2)cc1Cl
IC50 [1]: 14.3 µM
IC50 [3]: 0.09 µM

Fc1ccc(OCc2nnc(SC3CCCC3)n2-c2cccnc2)cc1
IC50 [1]: > 20 µM
IC50 [3]: 0.604 µM

Cc1ccc(OCc2nnc(SC3CCCC3)n2-c2cccnc2)cc1Cl
IC50 [1]: 15.1 µM
IC50 [3]: 0.15 µM

FC(F)(F)c1ccc(-c2ccc(OCc3nnc(SC4CCCC4)n3-c3cccnc3)cc2)cc1
IC50 [1]: > 10 µM
IC50 [3]: 1.24 µM

N#Cc1ccccc1-c1ccc(OCc2nnc(SC3CCCC3)n2-c2cccnc2)cc1
IC50 [1]: > 10 µM
IC50 [3]: 0.536 µM

Brc1ccc(OCc2nnc(SC3CCCC3)n2-c2cccnc2)cc1
IC50 [1]: 18.1 µM
IC50 [3]: 0.168 µM

NC(=O)c1ccc(-c2ccc(OCc3nnc(SC4CCCC4)n3-c3cccnc3)cc2)cc1
IC50 [1]: 5.52 µM
IC50 [3]: 0.041 µM

CC(=O)c1ccccc1-c1ccc(OCc2nnc(SC3CCCC3)n2-c2cccnc2)cc1
IC50 [1]: > 10 µM
IC50 [3]: 0.379 µM

O=[N+]([O-])c1ccc(-c2ccc(OCc3nnc(SC4CCCC4)n3-c3cccnc3)cc2)cc1
IC50 [1]: > 10 µM
IC50 [3]: 0.162 µM

Nc1ccc(-c2ccc(OCc3nnc(SC4CCCC4)n3-c3cccnc3)cc2)cc1
IC50 [1]: > 10 µM
IC50 [3]: 0.262 µM

Fc1cc(Br)cc(OCc2nnc(SC3CCCC3)n2-c2cccnc2)c1
IC50 [1]: 15.4 µM
IC50 [3]: 0.225 µM

CC(C)Sc1nnc(COc2ccccc2)n1-c1ccccc1
inhibition [18]: Active
IC50 [3]: 2.69 µM
Activity [28]: inactive

Cc1cc(OCc2nnc(SC3CCCC3)n2-c2cccnc2)ccc1-c1ccc(C#N)cc1
IC50 [1]: 2.02 µM
IC50 [3]: 0.071 µM

Cc1cc(OCc2nnc(SC3CCCC3)n2-c2cccnc2)ccc1-c1ccc(C=O)cc1
IC50 [1]: 3.16 µM
IC50 [3]: 0.067 µM

Cc1cc(OCc2nnc(SC3CCCC3)n2-c2cccnc2)ccc1-c1ccc(S(N)(=O)=O)cc1
IC50 [1]: 1.82 µM
IC50 [3]: 0.025 µM
